Reference: patent US20130224855A1, “CULTURE MEDIUM FOR EUKARYOTIC CELLS” (priority 2010, published 2013)
Peptide text beside a SMILES is read from it.

Tested on: IgG expressing CHO cell line (CHO-2: ATCC CRL 11397, producing IgG4)
Test: Growth and production curves of IgG expressing CHO cells in suspension culture in supplemented chemically defined medium
Assay type: cell-based, Chinese hamster
Settings: for Cell growth (area under curve) after 14 days: dimensionless AUC
Procedure: The cell culture assay was carried out in commercially available IS CHO-CD medium (Irvine Scientific, Cat. No. 91119). […] Penicillin and streptomycin were added to prevent any bacterial growth during the growth assay. The media was supplemented with β-Alanine, γ-glutamyl cysteine, glycyl-glycine, L-homoserine or N-acetyl methionine, all purchased from Sigma Aldrich, Germany, in varying concentrations (1×10^-5 to 1×10^-1% (w/v), see Table 2). The supplemented medium was mixed with a vortex mixture, filtered using a 0.22 μm filter and subsequently used in a growth assay. An IgG expressing CHO cell line was used (CHO-2: ATCC CRL 11397, producing IgG4). The cell lines were grown in the adherent conditions for a few passages and once confluent, they were transferred to animal-free conditions in the supplemented media described in Example 5. […] Chemically defined media with and without added amino acid derivatives were tested. No fresh media was added during the growth assay. Cells were counted using the […] counter (Innovatis, Germany). The cell counts were used to calculate the area under the growth curve and represented as dimensionless area under curve (AUC) values as described in detail in Ling, C. X, Huang, J. and Zhang, H. (2003), International joint conferences on artificial intelligence, pp. 329-341. The supernatant samples were taken every alternate days for the IgG production measurements. IgG production was measured using sandwich ELISA method. […] The cells were visually inspected using a phase contrast microscope (Zeiss Axiovert 25, 400× magnification). […] Only single cells were observed and no aggregation of cells was seen. The cell shape was also positively affected. […] This was in contrast with the observation that a lot of cell aggregates were present in CHO cell cultures grown in chemically defined medium without amino acid derivatives.

[1] = added at 1 × 10^−1 % w/v in IS CHO-CD medium
[2] = added at 1 × 10^−1 % w/v in IS CHO-CD medium, ratio of cumulative IgG (mg/ml) and AUC at day 11
[3] = added at 1 × 10^−2 % w/v in IS CHO-CD medium
[4] = added at 1 × 10^−3 % w/v in IS CHO-CD medium
[5] = added at 1 × 10^−4 % w/v in IS CHO-CD medium
[6] = added at 1 × 10^−5 % w/v in IS CHO-CD medium

SMILES	Cell growth (area under curve) after 14 days [1]	Specific IgG production after 11 days [2]	Specific IgG production after 11 days [3]	Cell growth (area under curve) after 14 days [3]	Specific IgG production after 11 days [4]	Cell growth (area under curve) after 14 days [4]	Specific IgG production after 11 days [5]	Cell growth (area under curve) after 14 days [5]	Specific IgG production after 11 days [6]	Cell growth (area under curve) after 14 days [6]
NCC(=O)NCC(=O)O [Glycyl-glycine] (H-Gly-Gly-OH)	50.6	86.6	95.8	48.2	104.2	49.6	113.5	47.7	102.0	51.0
N[C@@H](CCO)C(=O)O [L-homoserine]	45.7	122.0	72.0	59.1	96.8	39.4				
CSCC[C@H](NC(C)=O)C(=O)O [N-acetyl methionine]	48.6	91.9	90.4	47.9	94.4	46.0	90.3	38.6	81.3	41.2
NCCC(=O)O [β-alanine]	62.5	92.8	108.6	51.3	97.1	50.6				
N[C@@H](CCC(=O)N[C@@H](CS)C(=O)O)C(=O)O [γ-glutamyl cysteine]	46.1	78.2	105.9	42.8	68.33	58.0	77.2	47.6	72.5	58.9
